Experimental data: US10214508B2, “Nitrogen-containing heterocyclic compound” (Takeda Pharmaceutical Company Limited, priority 2014, dated 2019)
Where a name gives a salt, the structure may show the parent alone.

Target: T1, human M1 receptor (hCHRM1) (Homo sapiens, UniProt P11229)
T1 construct: expressed in transfected cells
T1 sequence (P11229 1-460): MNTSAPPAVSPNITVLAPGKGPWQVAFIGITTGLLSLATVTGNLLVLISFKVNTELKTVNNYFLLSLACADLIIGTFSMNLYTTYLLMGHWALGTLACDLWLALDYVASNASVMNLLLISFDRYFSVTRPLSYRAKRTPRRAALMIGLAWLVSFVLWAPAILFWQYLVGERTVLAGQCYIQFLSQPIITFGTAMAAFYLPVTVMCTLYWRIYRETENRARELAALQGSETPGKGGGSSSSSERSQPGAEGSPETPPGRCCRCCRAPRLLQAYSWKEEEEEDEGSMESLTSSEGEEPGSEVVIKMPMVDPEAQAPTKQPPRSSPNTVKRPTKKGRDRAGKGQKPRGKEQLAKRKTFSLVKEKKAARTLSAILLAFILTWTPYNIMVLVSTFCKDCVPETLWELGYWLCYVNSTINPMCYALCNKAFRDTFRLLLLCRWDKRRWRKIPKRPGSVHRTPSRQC
Assay: Measurement of M1 receptor positive allosteric modulator (M1PAM) activity, calcium fluorescence (FLIPRtetra)
Assay type: cell-based
Conditions: 10 μM test compound with acetylcholine at EC20 (final 0.6-0.8 nM); 100% = acetylcholine 1 μM, 0% = DMSO; CHO-K1 cells expressing hCHRM1
Description: Measurement of M1 Receptor Positive Allosteric Modulator (M1PAM) Activity
The activity of a test compound in the presence of acetylcholine at EC20 concentration (final concentration 0.6-0.8 nM), which affords an action corresponding to about 20% of the maximum activity, was measured as PAM activity. The method is as follows. CHO-K1 cells stably expressing a human M1 receptor (hCHRM1) were plated on a 384-well black clear bottom plate (BD Falcon) at 5,000 cells/well, and cultured in an incubator at 37° C., 5% CO2 for 1 day. The medium in the cell plate was removed, and assay buffer A containing calcium indicator (Recording medium (DOJINDO LABORATORIES), 0.1% BSA (Wako Pure Chemical Industries, Ltd.), 2.5 μg/mL Fluo-4 AM (DOJINDO LABORATORIES), 0.08% Pluronic F127 (DOJINDO LABORATORIES), 1.25 mM probenecid (DOJINDO LABORATORIES)) was added at 30 μL/well. The cells were left standing in the incubator at 37° C., 5% CO2 for 30 min, and further left standing at room temperature for 30 min. A test compound prepared by diluting with assay buffer B (HBSS (Invitrogen), 20 mM HEPES (Invitrogen), 0.1% BSA) containing 2.4-3.2 nM acetylcholine was added at 10 μL/well, and the fluorescence was measured by FLIPRtetra (Molecular Devices) for 1 min every for 1 second. With the definition that the amount of change in the fluorescence on addition of acetylcholine (final concentration 1 μM) is 100% and that on addition of DMSO instead of a test compound is 0%, the activity (%) of the test compound was calculated, and the inflection point in the concentration-dependent curve of the test compound was calculated as IP values.

Compared with C=Cc1cnc(C(=O)N[C@H]2CCCC[C@@H]2O)cc1Cc1ccc(-n2cccn2)cc1 [Example 42, N-((1S,2S)-2-hydroxycyclohexyl)-4-(4-(1H-pyrazol-1-yl)benzyl)-5-vinylpyridine-2-carboxamide], O=C(N[C@H]1CCCC[C@@H]1O)c1cc(Cc2ccc(-n3cccn3)cc2)c(Cl)cn1 [Example 6, 5-chloro-N-((1S,2S)-2-hydroxycyclohexyl)-4-(4-(1H-pyrazol-1-yl)benzyl)pyridine-2-carboxamide] is higher in “activity (%) at 10 μM” value: 106% for the first, 108% for the second.

Going from COc1cnc(C(=O)N[C@H]2CCCC[C@@H]2O)cc1Cc1ccc(-n2cccn2)cc1 [Example 63, N-((1S,2S)-2-Hydroxycyclohexyl)-5-methoxy-4-(4-(1H-pyrazol-1-yl)benzyl)pyridine-2-carboxamide] to O=C(N[C@H]1CCCC[C@@H]1O)c1cc(Cc2ccc(-n3cccn3)cc2)c(C2CC2)cn1 [Example 46, 5-cyclopropyl-N-((1S,2S)-2-hydroxycyclohexyl)-4-(4-(1H-pyrazol-1-yl)benzyl)pyridine-2-carboxamide], the “activity (%) at 10 μM” value rises from 94% to 101%.

Going from Cc1cnc(C(=O)N[C@H]2CCCC[C@@H]2O)cc1Cc1ccc(-n2cccn2)cc1F [Example 12, 4-(2-fluoro-4-(1H-pyrazol-1-yl)benzyl)-N-((1S,2S)-2-hydroxycyclohexyl)-5-methylpyridine-2-carboxamide] to COc1nc(C(=O)N[C@H]2CCCC[C@@H]2O)cc(Cc2ccc(-n3cccn3)cc2)c1C [Example 91, N-((1S,2S)-2-hydroxycyclohexyl)-6-methoxy-5-methyl-4-(4-(1H-pyrazol-1-yl)benzyl)pyridine-2-carboxamide], the “activity (%) at 10 μM” value falls from 113% to 98%.

Compared with O=C(N[C@H]1COCC[C@@H]1O)c1cc(Cc2ccc(-n3cccn3)cc2)c(Cl)cn1 [Example 8, 1,5-anhydro-2-(((5-chloro-4-(4-(1H-pyrazol-1-yl)benzyl)pyridin-2-yl)carbonyl)amino)-2,4-dideoxy-L-threo-pentitol Hydrochloride], Cc1nc(C(=O)N[C@H]2CCC[C@@H]2O)cc(Cc2ccc(-n3cccn3)cc2)c1Cl [Example 100, 5-chloro-N-((1S,2S)-2-hydroxycyclopentyl)-6-methyl-4-(4-(1H-pyrazol-1-yl)benzyl)pyridine-2-carboxamide] is higher in “activity (%) at 10 μM” value: 92% for the first, 97% for the second.

Going from COc1cc(Cc2ccc(-n3cccn3)cc2)cc(C(=O)N[C@H]2CCCC[C@@H]2O)n1 [Example 69, N-((1S,2S)-2-hydroxycyclohexyl)-6-methoxy-4-(4-(1H-pyrazol-1-yl)benzyl)pyridine-2-carboxamide] to Cc1nc(C(=O)N[C@H]2CCC[C@@H]2O)cc(Cc2ccc(-n3cccn3)cc2)c1C [Example 75, N-((1S,2S)-2-hydroxycyclopentyl)-5,6-dimethyl-4-(4-(1H-pyrazol-1-yl)benzyl)pyridine-2-carboxamide], the “activity (%) at 10 μM” value rises from 100% to 102%.

Compared with Cc1nc(C(=O)N[C@H]2CCC[C@@H]2O)cc(Cc2ccc(-c3ccn(C)n3)nc2)c1C [Example 117, N-((1S,2S)-2-hydroxycyclopentyl)-5,6-dimethyl-4-((6-(1-methyl-1H-pyrazol-3-yl)pyridin-3-yl)methyl)pyridine-2-carboxamide], Cc1nc(C(=O)N[C@H]2CCCC[C@@H]2O)cc(Cc2ccc(-c3cnn(C)c3)nc2)c1C [Example 80, N-((1S,2S)-2-hydroxycyclohexyl)-5,6-dimethyl-4-((6-(1-methyl-1H-pyrazol-4-yl)pyridin-3-yl)methyl)pyridine-2-carboxamide] is lower in “activity (%) at 10 μM” value: 106% for the first, 84% for the second.

First: COc1ccc(Cc2cc(C(=O)N[C@H]3CCCC[C@@H]3O)ncc2C)cc1 [Example 19, N-((1S,2S)-2-hydroxycyclohexyl)-4-(4-methoxybenzyl)-5-methylpyridine-2-carboxamide]
Second: COc1cnc(C(=O)N[C@H]2CCCC[C@@H]2O)cc1Cc1ccc(Cl)nc1 [Example 57, 4-((6-chloropyridin-3-yl)methyl)-N-(2-trans-hydroxycyclohexyl)-5-methoxypyridine-2-carboxamide]
The “activity (%) at 10 μM” value of the first is higher: 104% for the first, 95% for the second.

Compared with Cc1ccc(Cc2cc(C(=O)N[C@H]3COCC[C@@H]3O)nc(C)c2Cl)cn1 [Example 111, 1,5-anhydro-2-(((5-chloro-6-methyl-4-((6-methylpyridin-3-yl)methyl)pyridin-2-yl)carbonyl)amino)-2,4-dideoxy-L-threo-pentitol], Cc1nc(C(=O)N[C@H]2COCC[C@@H]2O)cc(Cc2ccc(C#N)cc2)c1Cl [Example 101, 1,5-anhydro-2-(((5-chloro-4-(4-cyanobenzyl)-6-methylpyridin-2-yl)carbonyl)amino)-2,4-dideoxy-L-threo-pentitol] is higher in “activity (%) at 10 μM” value: 90% for the first, 105% for the second.

Going from Cc1cnc(C(=O)N[C@H]2c3ccccc3C[C@H]2O)cc1Cc1ccc(-c2ccn(C)n2)cc1 [Example 24, N-((1S,2R)-2-hydroxy-2,3-dihydro-1H-inden-1-yl)-5-methyl-4-(4-(1-methyl-1H-pyrazol-3-yl)benzyl)pyridine-2-carboxamide] to Cc1cnc(C(=O)NC2CCOCC2)cc1Cc1ccc(-c2ccn(C)n2)cc1 [Example 27, 5-methyl-4-(4-(1-methyl-1H-pyrazol-3-yl)benzyl)-N-(tetrahydro-2H-pyran-4-yl)pyridine-2-carboxamide], the “activity (%) at 10 μM” value rises from 87% to 88%.

First: Cc1nc(C(=O)N[C@H]2CCC[C@@H]2O)cc(Cc2ccc(Cl)nc2)c1C [Example 116, 4-((6-chloropyridin-3-yl)methyl)-N-((1S,2S)-2-hydroxycyclopentyl)-5,6-dimethylpyridine-2-carboxamide]
Second: CCn1cc(-c2ccc(Cc3cc(C(=O)N[C@H]4CCCC[C@@H]4O)nc(C)c3Cl)cn2)cn1 [Example 108, 5-chloro-4-((6-(1-ethyl-1H-pyrazol-4-yl)pyridin-3-yl)methyl)-N-((1S,2S)-2-hydroxycyclohexyl)-6-methylpyridine-2-carboxamide]
The “activity (%) at 10 μM” value of the first is lower: 104% for the first, 114% for the second.

Going from Cc1nc(C(=O)N[C@H]2COCC[C@@H]2O)cc(Cc2ccc(-c3ccn(C)n3)cc2)c1Cl [Example 96, 1,5-anhydro-2-(((5-chloro-6-methyl-4-(4-(1-methyl-1H-pyrazol-3-yl)benzyl)pyridin-2-yl)carbonyl)amino)-2,4-dideoxy-L-threo-pentitol] to Cc1nc(C(=O)N[C@H]2COCC[C@@H]2O)cc(Cc2ccc(-c3ccn(C)n3)cc2)c1C#N [Example 115, 1,5-anhydro-2-(((5-cyano-6-methyl-4-(4-(1-methyl-1H-pyrazol-3-yl)benzyl)pyridin-2-yl)carbonyl)amino)-2,4-dideoxy-L-threo-pentitol], the “activity (%) at 10 μM” value falls from 112% to 111%.

With Cc1nc(C(=O)N[C@H]2CCCC[C@@H]2O)cc(Cc2ccc(-c3ccn(C)n3)cc2)c1Cl [Example 65, 5-chloro-N-((1S,2S)-2-hydroxycyclohexyl)-6-methyl-4-(4-(1-methyl-1H-pyrazol-3-yl)benzyl)pyridine-2-carboxamide] the “activity (%) at 10 μM” value was 106%.
